Source: US20050118249A1, “Lipid carrier compositions and methods for improved drug retention” (priority 2001, published 2005)

Columns and labels:
[1] = Retention of idarubicin in liposomes with varying internal citrate after intravenous injection; type: in vivo, Balb/c mice; conditions: DSPC/DSPE-PEG2000 (95:5) liposomes; 300 mM citrate (>500 mOsm/kg) in relation to 100 and 150 mM (<500 mOsm/kg); i.v., 0.5-24 h
Method: DSPC/DSPE-PEG2000 (95:5 mole ratio) liposomes prepared with 100, 150 and 300 mM citrate were also loaded with idarubicin at a drug to lipid mole ratio of 0.25:1. Loading was facilitated by incubating the drug and liposomes at 37° C. for 60 minutes. Liposomes were administered to Balb/c mice as indicated and blood samples were removed by cardiac puncture at 0.5, 1, 2, 4 and 24-hours post administration (3 mice per time point). Idarubicin concentration was quantitated using fluorescence intensity at 485 nm as the excitation wavelength and 535 nm as an emission wavelength and using an absorbance wavelength of 482 nm.

[2] = Retention of daunorubicin in liposomes with varying internal citrate, 4 hours after injection; type: in vivo, Balb/c mice; conditions: DSPC/DSPE-PEG2000 (95:5) liposomes; 100, 150 and 200 mM internal citrate (about 200, 300, 400 mOsm/kg); 4 hours after i.v. injection
Method: DSPC/DSPE-PEG2000 (95:5 mole ratio) liposomes containing the non-exchangeable marker 3H-CHE were prepared as described in Example 1, except that lipid films were hydrated with 100, 150, 200, 250 or 300 mM citrate, pH 4.0 (corresponding to osmolarity levels of about 200, 300, 400, 500 or 600 mOsm/kg, respectively).
Daunorubicin was loaded at a 0.2:1 drug-to-lipid mole ratio with the methods detailed above into each of the five liposomal formulations. The resulting liposomes were administered to female Balb/c mice at a lipid dose of 165 μmoles/kg in a final volume of 200 μL immediately after preparation (within 1-2 hrs). Blood samples were removed 4 hours after administration by cardiac puncture (3 mice per time point). Lipid and daunorubicin levels were determined as described previously and percent initial drug-to-lipid ratio was reported as the mean±SD.

[3] = Retention of daunorubicin in liposomes in blood after intravenous injection (time course); type: in vivo, Balb/c mice; conditions: DSPC/DSPE-PEG2000 (95:5) liposomes; internal citrate 600 mOsm/kg (300 mM) in relation to 300 mOsm/kg (150 mM); i.v., 1, 4, 24 h
Method: DSPC/DSPE-PEG2000 liposomes (95:5 mole ratio) containing 150 or 300 mM citrate (300 or 600 mOsm/kg), pH 4 and DSPC/Cholesterol (55:45 mole ratio) and DSPC/Cholesterol/DSPE-PEG2000 (50:45:5 mole ratio) liposomes containing 150 mM citrate, pH 4 were prepared as described in Example 1. Liposomes were subsequently combined with daunorubicin at a 0.2:1 drug to lipid mole ratio. To facilitate drug loading, the mixtures were incubated at 40° C. for 60 minutes.
The resulting daunorubicin-containing liposomes were administered to Balb/c female mice at a lipid dose of 165 μmoles/kg as detailed above. Blood samples were removed at 1, 4 and 24 hours post administration by cardiac puncture (3 mice per time point). Lipid levels were determined by liquid scintillation counting. Daunorubicin was extracted from plasma samples and quantified as follows: a defined volume of plasma was adjusted to 200 μL with distilled water followed by addition of 600 μL of distilled water, 100 μL of 10% SDS and 100 μL of 10 mM H2SO4. This solution was mixed and 2 mLs of 1:1 isopropanol/chloroform was added followed by vortexing. […] The bottom organic layer was removed and assayed for fluorescence intensity at 500 nm as the excitation wavelength (2.5 nm bandpass) and 550 nm as an emission wavelength (10 nm bandpass) and using an absorbance wavelength of 480 nm.

[4] = Retention of vincristine in liposomes in blood after intravenous injection; type: in vivo, Balb/c mice; conditions: i.v., 1, 4, 24 h
Method: Solutions of lipids in chloroform were combined to give a 95:5 molar ratio of DSPC/DSPE-PEG2000 or a 55:45 molar ratio of DSPC/Cholesterol, with trace amounts of ^14C-cholesteryl hexadecyl ether (^14C-CHE). The resulting mixtures were dried under a stream of nitrogen gas and placed in a vacuum pump overnight. The samples were hydrated at 70° C. with either 300 mM citrate, pH 4.0 (about 600 milliosmoles/kg (mOsm/kg)) or 150 mM citrate buffer, pH 4.0 (about 300 mOsm/kg) and passed through an extrusion apparatus (Northern Lipids Inc., Vancouver, BC) ten times with two 100 nm pore size polycarbonate filters at 70° C. Average liposome size was determined by quasi-elastic light scattering using a NICOMP 370 submicron particle sizer operating at a wavelength of 632.8 nm. The resulting liposomes were applied to a Sephadex G50 column equilibrated with HBS (20 mM HEPES, 150 mM NaCl, about 320 mOsm/kg), pH 7.45 to exchange the external liposomal buffer. […]
Vincristine-containing liposomes were administered intravenously to Balb/c mice at a lipid dose of 165 μmoles/kg in a final volume of 200 μL immediately after preparation (within 1-2 hrs). […] Lipid and vincristine levels were quantified by liquid scintillation counting and the values were reported as the mean ± standard deviation (SD).

[5] = Drug-to-lipid ratio of irinotecan before and after freezing of dual-loaded DSPC/DSPG liposomes; type: physicochemical; conditions: 0-20 mole % cholesterol, with FUDR, 250 mM CuSO4 inside (<500 mOsm/kg), frozen at -20° C. and -70° C. for 24 hours
Method: FUDR and irinotecan were loaded into cholesterol-free liposomes containing a low osmolarity internal solution and drug retention and liposome size were measured prior to and after freezing. DSPC/DSPG liposomes containing 0-20 mole % cholesterol, 20 mole % DSPG and passively entrapped FUDR were prepared as described previously and hydrated in 250 mM CuSO4 (<500 mOsm/kg). The MLVs were extruded at 70° C. as detailed above and buffered exchanged into saline and then into 300 mM sucrose, 20 mM Hepes, 30 mM EDTA (SHE), pH 7.4 using a hand-held tangential flow column. The sample was then further exchanged into 300 mM sucrose, 20 mM Hepes, pH 7.4 to remove residual EDTA. The liposomes were subsequently loaded with irinotecan at a drug-to-lipid mole ratio of 0.1:1 by mixing the two solutions at 50° C. for five minutes. The dual-loaded liposomes were then buffered exchanged into HBS using tangential flow to remove any unencapsulated drug.
The influence of freezing on liposome stability was determined by freezing the liposomes at either −20° C. or −70° C. for 24 hours. […] Lipid and FUDR levels were quantified using liquid scintillation and absorbance at 370 nm was used to determine irinotecan concentration. Particle sizing of the liposomes was also determined prior to and after freezing using quasi-elastic light scattering.

[6] = Retention of FUDR in DSPC/DSPG/Chol liposomes in blood after intravenous injection; type: in vivo, Balb/c mice; conditions: DSPC/DSPG/Chol (70:20:10) liposomes; intraliposomal solution of less than 500 mOsm/kg; i.v., 1, 4, 24 h
Method: DSPC/DSPG/Chol (70:20:10 mole ratio) were prepared following the methods of Example 1 except that lipid films were hydrated in either saline or Cu(II)gluconate, pH 7.4 containing 25 mg/mL FUDR at 70° C. Cu(II)gluconate was added at either 100 or 200 mM (321 and 676 mOsm/kg, respectively) and the pH was adjusted to 7.4 by addition of triethanolamine (TEA). Trace amounts of 14C-CHE and ^3H-FUDR were used as lipid and drug markers, respectively. The resulting MLVs were extruded at 75° C. through two stacked 100 nm pore size filters for a total of ten passes. Liposomes were buffer exchanged into HBS, pH 7.4 using a hand-held tangential flow column. A total lipid dose of 3.3 μmoles (165 μmoles/kg) was administered to female Balb/c mice in a final volume of 200 μL immediately after preparation (within 1-2 hrs). Blood samples were removed by cardiac puncture 1, 4 and 24-hours post administration (3 mice per time point). Lipid and FUDR levels were determined using liquid scintillation counting and values were reported as the mean±SD.

For `CC(=O)[C@]1(O)Cc2c(O)c3c(c(O)c2[C@@H](O[C@H]2C[C@H](N)[C@H](O)[C@H](C)O2)C1)C(=O)c1ccccc1C3=O` [idarubicin], the “idarubicin retention (idarubicin-to-lipid mole ratio in the blood)” value [1] was “significantly decreased”.

With `COc1cccc2c1C(=O)c1c(O)c3c(c(O)c1C2=O)C[C@@](O)(C(C)=O)C[C@@H]3O[C@H]1C[C@H](N)[C@H](O)[C@H](C)O1` [daunorubicin] the “retention of daunorubicin (percent initial daunorubicin-to-lipid ratio remaining in the blood)” value [2] was “optimal retention” and the “daunorubicin retention (percent initial daunorubicin-to-lipid ratio remaining in the blood)” value [3] was “compromised”.

For `CC[C@]1(O)C[C@H]2CN(CCc3c([nH]c4ccccc34)[C@@](C(=O)OC)(c3cc4c(cc3OC)N(C=O)[C@H]3[C@@](O)(C(=O)OC)[C@H](OC(C)=O)[C@]5(CC)C=CCN6CC[C@]43[C@@H]65)C2)C1` [vincristine], the “retention of vincristine (percent initial vincristine-to-lipid weight ratio in the blood)” value ([4]; DSPC/DSPE-PEG2000 (95:5 mole ratio) liposomes, internal citrate 300 mOsm/kg (150 mM) compared to 600 mOsm/kg (300 mM)) was “significantly enhanced” and the “retention of vincristine (percent initial vincristine-to-lipid weight ratio in the blood)” value ([4]; DSPC/cholesterol (55:45 mole ratio) liposomes, 150 mM vs 300 mM internal citrate) was “independent of the osmolarity of the intraliposomal solution”.

For `CCc1c2c(nc3ccc(OC(=O)N4CCC(N5CCCCC5)CC4)cc13)-c1cc3c(c(=O)n1C2)COC(=O)[C@]3(O)CC` [irinotecan], the “retention of irinotecan after freezing (drug-to-lipid ratio)” value [5] was “effectively retained”.

With `O=c1[nH]c(=O)n([C@H]2C[C@H](O)[C@@H](CO)O2)cc1F` [FUDR, Floxuridine] the “FUDR retention (FUDR levels remaining in the blood)” value [6] was “optimally retained”.
